Source: patent EP0517371B1, “Hair growth composition containing citric acid esters” (UNILEVER PLC, priority 1991, dated 1992)
Counter-ions that a name gives are not always drawn.

Test system: albino rats
Assay: Rat hair growth trial (plucked hair at end of G-2 anagen after topical application)
Assay type: in vivo
Conditions: for LENGTH (length of hair) / WT/AREA (weight of hair per unit area of skin): G-2 anagen, topical twice daily, 6 rats per group, TBC 5% by weight in vanishing cream base, minoxidil 2% by weight in 65% v/v aqueous ethanol
Experimental: The effect of esters of citric acid on hair growth was assessed using albino rats as an animal model. The rats were chosen from as few litters as possible and were each approximately 27-30 days of age at the start of the trial. Each rat was housed individually to prevent licking.
In each comparison, 6 rats were used in each group and hair growth was assessed as follows: A small patch of normal skin (3cm x 3cm) on the upper back of each rat was selected and hairs were plucked from this area at the start of the trial (G-1 telogen). Test materials or control in a vanishing cream base or an alcoholic lotion, as appropriate, were then applied twice daily until the end of the next anagen, i.e. after a further 20 days from the start of trial (G-2 anagen). Each application of lotion amounted to about 50 mg.
At the end of G2-anagen, hair was plucked again from the same dorsal area, and this was used for measurement of: • i) weight of hair per unit area of skin, • ii) length of hair, and • iii) diameter of hair measured microscopically.
This procedure was employed to compare the effect of topical application to the rat model of a known hair growth promoter, namely minoxidil and a test material as used in accordance with the invention, namely tri-n-butyl citrate.
In this experiment minoxidil was employed at a concentration of 2% by weight in 65% v/v aqueous ethanol and tri-n-butyl citrate was employed at a concentration of 5% by weight in a vanishing cream base.

[1] = end of G-2 anagen, versus control (vanishing cream base)

Q: Which “LENGTH (length of hair)” value does the source give for `CCCCOC(=O)CC(O)(CC(=O)OCCCC)C(=O)OCCCC` [TBC, tri-n-butyl citrate] here?
A: 10.74 ± 1.16 mm

Q: And the “WT/AREA (weight of hair per unit area of skin)” value?
A: 17.24 ± 0.97 mg/cm2

Q: And the “hair diameter, comparison in words” value [1]?
A: similar

Q: What about the “length of hair, comparison in words” value [1] of the same compound?
A: marked increase over both control and minoxidil

Q: What about the “weight of plucked hair per unit area, comparison in words” value [1] of the same compound?
A: marked increase over the control

Q: For `Nc1cc(N2CCCCC2)nc(N)[n+]1[O-]` [Minoxidil, reference compound], which “LENGTH (length of hair)” value is on record?
A: 8.85 ± 0.42 mm

Q: What about the “WT/AREA (weight of hair per unit area of skin)” value of the same compound?
A: 16.27 ± 0.97 mg/cm2
